Assay results as given in the Kinase Knowledgebase extract (Sharma et al. 2016).

What was measured:
[1] = biological target: CDK2 (Human) (UniProt P24941); experiment: Enzyme Assay
[2] = biological target: EGFR (human) (UniProt P00533)
EGFR (human), sequence (P00533 whole entry, looked up): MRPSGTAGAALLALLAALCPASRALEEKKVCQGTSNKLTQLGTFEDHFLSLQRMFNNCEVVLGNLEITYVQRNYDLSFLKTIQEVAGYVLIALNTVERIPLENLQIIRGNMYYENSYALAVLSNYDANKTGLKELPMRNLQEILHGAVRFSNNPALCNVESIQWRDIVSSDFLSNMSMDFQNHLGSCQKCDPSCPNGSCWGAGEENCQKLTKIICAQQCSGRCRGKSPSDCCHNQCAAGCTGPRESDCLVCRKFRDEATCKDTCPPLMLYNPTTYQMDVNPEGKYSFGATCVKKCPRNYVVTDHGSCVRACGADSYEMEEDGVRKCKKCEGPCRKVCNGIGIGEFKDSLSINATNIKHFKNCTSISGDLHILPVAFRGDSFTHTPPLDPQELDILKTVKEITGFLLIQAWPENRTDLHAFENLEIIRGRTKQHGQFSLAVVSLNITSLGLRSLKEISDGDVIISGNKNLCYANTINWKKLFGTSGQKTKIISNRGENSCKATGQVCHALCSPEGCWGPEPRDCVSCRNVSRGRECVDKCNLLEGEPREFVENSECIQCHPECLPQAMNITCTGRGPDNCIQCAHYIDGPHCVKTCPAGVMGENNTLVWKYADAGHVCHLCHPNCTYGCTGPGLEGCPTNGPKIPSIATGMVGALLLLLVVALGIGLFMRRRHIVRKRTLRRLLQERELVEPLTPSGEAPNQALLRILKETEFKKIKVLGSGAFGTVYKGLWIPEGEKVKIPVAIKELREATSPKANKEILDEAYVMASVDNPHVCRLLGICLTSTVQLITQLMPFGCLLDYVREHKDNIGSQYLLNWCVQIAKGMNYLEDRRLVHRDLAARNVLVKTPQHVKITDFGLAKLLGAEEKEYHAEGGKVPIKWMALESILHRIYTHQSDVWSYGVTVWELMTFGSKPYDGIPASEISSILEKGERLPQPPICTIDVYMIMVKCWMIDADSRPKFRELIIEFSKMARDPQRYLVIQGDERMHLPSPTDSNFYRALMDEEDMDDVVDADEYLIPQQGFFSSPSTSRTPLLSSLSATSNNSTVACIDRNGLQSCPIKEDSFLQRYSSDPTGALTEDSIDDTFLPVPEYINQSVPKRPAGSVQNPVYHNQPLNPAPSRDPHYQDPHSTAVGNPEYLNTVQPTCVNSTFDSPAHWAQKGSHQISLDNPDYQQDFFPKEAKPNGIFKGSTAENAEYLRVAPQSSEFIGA

| SMILES | IC50 [1] | IC50 [2] |
| --- | --- | --- |
| Cc1[nH]nc2c1N=C(c1ccccc1)c1cc(Cl)ccc1N2 | 490 nM |  |
| Cc1[nH]nc2c1N=C(c1ccccc1Cl)c1cc(Cl)ccc1N2 | 440 nM |  |
| COc1ccc2c(c1)C(c1ccccc1Cl)=Nc1c(n[nH]c1C)N2 | 320 nM |  |
| Cc1[nH]nc2c1N=C(c1ccccc1Cl)c1cc(N)ccc1N2 | 88 nM | 989 nM |

The remaining compounds from weak to strong by IC50 [1], led by results:

| IC50 [1] | IC50 [2] | SMILES |
| --- | --- | --- |
| 190 nM |  | Cc1[nH]nc2c1N=C(c1ccccc1F)c1cc(Cl)ccc1N2 |
| 46 nM |  | Cc1[nH]nc2c1N=C(c1ccccc1Cl)c1cc(NS(=O)(=O)N(C)C)ccc1N2 |
| 38 nM | 726 nM | CC(=O)Nc1ccc2c(c1)C(c1ccccc1Cl)=Nc1c(n[nH]c1C)N2 |
| 24 nM |  | Cc1[nH]nc2c1N=C(c1ccccc1Cl)c1cc(NS(C)(=O)=O)ccc1N2 |
| 17 nM |  | Cc1[nH]nc2c1N=C(c1ccccc1F)c1cc(C(N)=O)ccc1N2 |
| 16 nM | 10900 nM | Cc1[nH]nc2c1N=C(c1ccccc1F)c1cc(C#N)ccc1N2 |
